By IC50 is commonly meant the point on the concentration scale where inhibition reaches its midpoint.

Where two headings read alike, the source gives them in different places.

In this test the target is canine TRPM8 (Canis lupus familiaris, UniProt Q1A7N1). Kind of test: In Vitro Canine TRPM8 Functional Assay (Ca2+ fluorescence, icilin activation). The note with it: for inhibition at 0.2 µM: read-out: % Inh @ 0.2; for inhibition at 0.5 µM: compound at 0.5 μM, read-out: % Inh @ 0.5; for IC50: read-out: IC50. In kind it is cell-based. In a few lines: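 Canine TRPM8 stably expressed in HEK293; compound added 5 min before icilin challenge (~80% max response), with fluorescent Ca2+ signal tracked throughout.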
Sequence of canine TRPM8 (Q1A7N1 1-1104): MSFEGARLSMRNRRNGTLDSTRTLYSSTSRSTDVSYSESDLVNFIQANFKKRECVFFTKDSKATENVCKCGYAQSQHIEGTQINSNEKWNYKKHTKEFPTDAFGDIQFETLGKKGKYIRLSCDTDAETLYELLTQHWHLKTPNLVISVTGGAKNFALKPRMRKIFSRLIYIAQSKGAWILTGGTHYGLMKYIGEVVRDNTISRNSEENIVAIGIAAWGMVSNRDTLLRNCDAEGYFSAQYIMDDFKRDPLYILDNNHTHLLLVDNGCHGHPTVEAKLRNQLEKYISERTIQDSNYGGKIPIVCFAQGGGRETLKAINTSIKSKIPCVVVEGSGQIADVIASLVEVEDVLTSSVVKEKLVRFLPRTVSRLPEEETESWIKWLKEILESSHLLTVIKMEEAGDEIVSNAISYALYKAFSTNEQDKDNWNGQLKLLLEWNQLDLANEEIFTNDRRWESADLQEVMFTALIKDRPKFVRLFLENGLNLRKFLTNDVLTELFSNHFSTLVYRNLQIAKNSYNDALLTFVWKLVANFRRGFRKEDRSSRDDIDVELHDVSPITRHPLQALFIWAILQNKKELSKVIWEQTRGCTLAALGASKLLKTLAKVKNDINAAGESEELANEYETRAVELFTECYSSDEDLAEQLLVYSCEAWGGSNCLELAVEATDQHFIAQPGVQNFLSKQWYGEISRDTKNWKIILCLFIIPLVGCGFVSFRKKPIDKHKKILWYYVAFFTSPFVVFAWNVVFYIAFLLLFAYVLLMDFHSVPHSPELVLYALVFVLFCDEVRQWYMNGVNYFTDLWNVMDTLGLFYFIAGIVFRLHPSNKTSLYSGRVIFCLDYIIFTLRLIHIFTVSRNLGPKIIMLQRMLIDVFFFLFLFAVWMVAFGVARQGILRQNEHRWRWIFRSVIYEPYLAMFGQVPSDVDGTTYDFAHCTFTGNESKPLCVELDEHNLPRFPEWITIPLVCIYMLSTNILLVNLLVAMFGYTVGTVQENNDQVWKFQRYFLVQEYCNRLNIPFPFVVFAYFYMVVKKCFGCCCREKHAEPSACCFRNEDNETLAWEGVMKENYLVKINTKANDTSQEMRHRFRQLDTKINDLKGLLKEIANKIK

Where [1] appears, read: 0.2 μM compound, HEK293 cells stably expressing canine TRPM8, icilin activation.
The mark [2] stands for this setting: compound at 0.2 μM, canine TRPM8, icilin activation.
[3] abbreviates: canine TRPM8, icilin activation.
The mark [4] stands for this setting: HEK293 cells stably expressing canine TRPM8, icilin activation, eight-point dose-response.

On to `CCS(=O)(=O)N(Cc1ccc(F)c(OC)c1)c1sc2ccccc2c1C(C)(C)O` [Compound 838, N-(4-Fluoro-3-methoxybenzyl)-N-[3-(1-hydroxy-1-methyl-ethyl)-benzo[b]thiophen-2-yl]-ethanesulfonamide], for which the inhibition at 0.2 µM under setting [1] worked out at 101%.
Take `CC#CCCN(c1sc2ccccc2c1C)S(=O)(=O)CC` [Compound 107, N-(3-Methyl-benzo[b]thiophen-2-yl)-N-(pent-3-ynyl)-ethanesulfonamide]: the inhibition at 0.2 µM under setting [2] was found to be 72%.
On the same count and under the same terms, the same measure for `Cc1c(N(Cc2ccc(F)c(C(F)(F)F)c2)S(=O)(=O)c2ccc(N(C)C)nc2)sc2ccccc12` [Compound 360]: 92%.
Turning to `CC(C)(C)OC(=O)N1CCCC1CN(c1sc2ccccc2c1Cl)S(=O)(=O)c1ccccc1` (centres unmarked) [Compound 89, N-(3-Chloro-benzo[b]thiophen-2-yl)-N-{[1-(carbo-tert-butoxy)pyrrolidin-2-yl]-methyl}-benzenesulfonamide], under setting [3], the inhibition at 0.5 µM was 96%.
For `COC(=O)c1ccc(S(=O)(=O)N(CCC(F)(F)F)c2sc3ccccc3c2C(C)(C)O)cc1` [Compound 504, N-(3-(1-Hydroxy-1-methyl-ethyl)-benzo[b]thiophen-2-yl)-N-(3,3,3-trifluoro-propyl)-4-carbomethoxy-benzenesulfonamide], the IC50 under setting [4] was determined as 18 nM. Further, under setting [2], the inhibition at 0.2 µM was 101%.
Regarding `Cc1c(N(Cc2ccc(F)c(C(F)(F)F)c2)S(=O)(=O)c2cccc3nccnc23)sc2ccccc12` [Compound 723, N-(3-Methyl-benzo[b]thiophen-2-yl)-N-(4-fluoro-3-trifluoromethyl-benzyl)-quinoxalin-5-yl-sulfonamide], under setting [4], the 50% inhibitory concentration (IC50) came out at 18 nM. Under setting [2], the inhibition at 0.2 µM was determined as 102%.
Take `O=S1NC(c2ccc(S(=O)(=O)N(CCCCC(F)(F)F)c3sc4ccccc4c3Br)cc2)=NO1` (centres unmarked) [Compound 581, N-(3-Bromo-benzo[b]thiophen-2-yl)-N-(5,5,5-trifluoro-pentyl)-4-(3H-[1,2,3,5]oxathiadiazole-2-oxide)-benzenesulfonamide]: under setting [4], the IC50 was determined as 25.1 nM. Moreover, the “% Inh @ 0.2 (μM)” value under setting [2] was determined as 100%.
`O=S(=O)(c1ccc(Br)cc1)N(CCCCC(F)(F)F)c1cc2ccccc2s1` [Compound 655, N-(Benzo[b]thiophen-2-yl)-4-bromo-N-(5,5,5-trifluoro-pentyl)-benzenesulfonamide]: the inhibition at 0.2 µM under setting [2] was found to be 55%.
Consider `Cc1c(N(Cc2ccc(F)c(C(F)(F)F)c2)S(=O)(=O)c2cccc3c2CN(C(=O)C(F)(F)F)CC3)sc2ccccc12` [Compound 73, N-(4-Fluoro-3-trifluoromethyl-benzyl)-N-(3-methyl-benzo[b]thiophen-2-yl)-2-(2,2,2-trifluoro-acetyl)-1,2,3,4-tetrahydro-isoquinoline-8-sulfonamide], for which the inhibition at 0.2 µM under setting [2] was determined as 24%.
As to `Cc1c(N(Cc2ccc(F)c(F)c2)S(=O)(=O)c2cccs2)sc2ccccc12` [Compound 129, N-(3,4-Difluoro-benzyl)-N-(3-methyl-benzo[b]thiophen-2-yl)-thiene-2-ylsulfonamide], under setting [4], the IC50 worked out at 2.8 nM. For the same compound, under setting [3], the inhibition at 0.5 µM came to 101%.
Regarding `O=C(O)c1ccc(S(=O)(=O)N(CCCCC(F)(F)F)c2sc3ccccc3c2Cl)cc1` [Compound 538, N-(3-Chloro-benzo[b]thiophen-2-yl)-N-(5,5,5-trifluoro-pentyl)-4-carboxy-benzenesulfonamide], the IC50 under setting [4] was determined as 4.9 nM. Further, the inhibition at 0.2 µM under setting [2] amounted to 105%.
As for `Cc1c(N(Cc2cccc3cccnc23)S(=O)(=O)c2cccc3cnccc23)sc2ccccc12` [Compound 29, N-(3-Methyl-benzo[b]thiophen-2-yl)-N-(quinolin-8-ylmethyl)-isoquinoline-5-sulfonamide], under setting [4], the half-maximal inhibitory concentration (IC50) came to 33 nM. Also, the inhibition at 0.5 µM under setting [3] was 99%.
For the compound `CC(C)(O)c1c(N(Cc2ccc(F)cc2)S(=O)(=O)c2ccc(Br)cc2)sc2ccccc12` [Compound 734, N-(4-Fluorobenzyl)-N-(3-(1-hydroxy-1-methyl-ethyl)-benzo[b]thiophen-2-yl)-4-bromo-benzenesulfonamide], the IC50 under setting [4] came out at 9.7 nM. Besides, the inhibition at 0.2 µM under setting [2] amounted to 102%.
The corresponding values for `C=C(C)c1c(N(Cc2cc(OC)c(Cl)cc2F)S(=O)(=O)CC)sc2ccccc12` [Compound 768, N-(4-Chloro-2-fluoro-5-methoxy-benzyl)-N-(3-isopropenyl-benzo[b]thiophen-2-yl)-ethanesulfonamide] are 18.8 nM and 93%.
For `CCCCN(c1sc2ccccc2c1C(C)(C)O)S(=O)(=O)c1ccc(C(C)(C)O)cc1` [Compound 341, N-(Butyl)-N-(3-(1-hydroxy-1-methyl-ethyl)-benzo[b]thiophen-2-yl)-4-(2-1-hydroxy-1-methyl-ethyl)-benzenesulfonamide], the IC50 under setting [4] came out at 14 nM. Besides, the “% Inh @ 0.2 (μM)” value under setting [2] stood at 96%.
As for `Cc1c(N(CCF)S(=O)(=O)c2ccccc2)sc2ccccc12` [Compound 818, N-(2-Fluoro-ethyl)-N-(3-methyl-benzo[b]thiophen-2-yl)-benzenesulfonamide], under setting [1], the inhibition at 0.2 µM was determined as 92%. For the same compound, the IC50 (HEK293 cells stably expressing canine TRPM8, icilin activation, average of two or more determinations) was 62 nM.
For the compound `Cc1nc(O)nc(O)c1S(=O)(=O)N(Cc1ccc(F)c(C(F)(F)F)c1)c1sc2ccccc2c1C` [Compound 72, N-(3-Methyl-benzo[b]thiophen-2-yl)-N-(4-fluoro-3-trifluoromethylbenzyl)-(2,4-dihydroxy-6-methyl-pyrimidine-5-yl)sulfonamide], under setting [4], the IC50 is 26 nM. For the same compound, under setting [2], the inhibition at 0.2 µM amounted to 99%.
Turning to “N-(3-Methyl-benzo[b]thiophen-2-yl)-N-(5,5,5-trifluoro-pentyl)-4-thiomorpholin-4-yl-benzenesulfonamide [Compound 749]”, the “% Inh @ 0.2 (μM)” value under setting [2] is 64%.
`Cc1c(N(Cc2ccc(F)c(C(F)(F)F)c2)S(=O)(=O)c2ccc3c(c2)CC(N)C3)sc2ccccc12` (centres unmarked) [Compound 747, 2-Amino-indan-N-(3-methyl-benzo[b]thiophen-2-yl)-N-(4-fluoro-3-trifluoromethyl-benzyl)-N-sulfonamide]: the “% Inh @ 0.2 (μM)” value under setting [2] is 48%.
Turning to `O=C(O)c1ccc(S(=O)(=O)N(Cc2ccc(F)c(C(F)(F)F)c2)c2sc3ccccc3c2C2CCC2)cc1` [Compound 698, N-(3-Cyclobutyl-benzo[b]thiophen-2-yl)-N-(4-fluoro-3-trifluoromethyl-benzyl)-4-carboxy-benzenesulfonamide], the half-maximal inhibitory concentration (IC50) under setting [4] is 2 nM. For the same compound, under setting [2], the inhibition at 0.2 µM worked out at 102%.
With `CN(C)S(=O)(=O)c1cccc(S(=O)(=O)N(CCC(F)(F)F)c2cc3ccccc3s2)c1` [Compound 461, N-(Benzo[b]thiophen-2-yl)-N-(3,3,3-trifluoro-propyl)-3-dimethylsulfamoyl-benzenesulfonamide], the inhibition at 0.2 µM under setting [2] is 30%.
`O=C(O)c1ccc(S(=O)(=O)N(CCC(F)(F)F)c2sc3ccccc3c2Br)c(F)c1` [Compound 710, N-(3-Bromo-benzo[b]thiophen-2-yl)-N-(3,3,3-trifluoro-propyl)-2-fluoro-4-carboxy-benzenesulfonamide]: under setting [4], the IC50 amounted to 7 nM. For the same compound, under setting [2], the inhibition at 0.2 µM is 102%.
With `Cc1c(N(Cc2cccc3cccnc23)S(=O)(=O)c2cn(C)cn2)sc2ccccc12` [Compound 10, N-(3-Methyl-benzo[b]thiophen-2-yl)-N-(quinolin-8-ylmethyl)-1-methyl-1H-imidazole-4-sulfonamide], the IC50 under setting [4] worked out at 229 nM. For the same compound, the inhibition at 0.5 µM under setting [3] turned out to be 89%.
In the case of `Cc1c(N(Cc2ccc(F)c(F)c2)S(=O)(=O)Cc2ccccc2)sc2ccccc12` [Compound 126, N-(3,4-Difluoro-benzyl)-N-(3-methyl-benzo[b]thiophen-2-yl)-phenyl-methanesulfonamide], the inhibition at 0.5 µM under setting [3] turned out to be 45%.
Take `CNCc1c(N(Cc2ccc(F)c(C(F)(F)F)c2)S(=O)(=O)c2ccccc2)sc2ccccc12` [Compound 417, N-(4-Fluoro-3-trifluoromethyl-benzyl)-N-(3-methylaminomethyl-benzo[b]thiophen-2-yl)-benzenesulfonamide]: the IC50 under setting [4] amounted to 62 nM. Also, the inhibition at 0.2 µM under setting [2] stood at 93%.
As for `O=S1NC(c2ccc(S(=O)(=O)N(CCCCC(F)(F)F)c3sc4ccccc4c3Cl)cc2)=NO1` (centres unmarked) [Compound 582, N-(3-Chloro-benzo[b]thiophen-2-yl)-N-(5,5,5-trifluoro-pentyl)-4-(3H-[1,2,3,5]oxathiadiazole-2-oxide)-benzenesulfonamide], under setting [4], the half-inhibitory concentration (IC50) worked out at 50.3 nM. For the same compound, the “% Inh @ 0.2 (μM)” value under setting [2] came out at 96%.
Take `O=S(=O)(CC(F)(F)F)N(Cc1ccc(F)c(C(F)(F)F)c1)c1sc2ccccc2c1Cl` [Compound 703, N-(3-Chloro-benzo[b]thiophen-2-yl)-N-(4-fluoro-3-trifluoromethyl-benzyl)-2,2,2-trifluoro-ethanesulfonamide]: the IC50 under setting [4] came out at 51 nM. The inhibition at 0.2 µM under setting [2] came out at 80%.
Regarding `COCCN(c1sc2ccccc2c1Br)S(=O)(=O)c1ccc(C(=O)O)cc1` [Compound 274, N-(3-Bromo-benzo[b]thiophen-2-yl)-N-(2-methoxyethyl)-4-carboxy-benzenesulfonamide], under setting [4], the IC50 amounted to 36 nM. Further, the inhibition at 0.2 µM under setting [2] turned out to be 94%.
On to `O=S(=O)(c1ccc(-c2nnn[nH]2)cc1)N(CC1CC1)c1sc2ccccc2c1Br` [Compound 474, N-(3-Bromo-benzo[b]thiophen-2-yl)-N-(cyclopropyl-methyl)-4-(1H-tetrazol-5-yl)-benzenesulfonamide], for which, under setting [4], the IC50 worked out at 8 nM. For the same compound, the inhibition at 0.2 µM under setting [2] worked out at 101%.
Regarding `O=S(=O)(c1ccc(-c2nnn[nH]2)cc1)N(CCC(F)(F)F)c1sc2ccccc2c1Cl` [Compound 636, N-(3-Chloro-benzo[b]thiophen-2-yl)-N-(3,3,3-trifluoro-propyl)-4-(1H-tetrazol-5-yl)-benzenesulfonamide], the 50% inhibitory concentration (IC50) under setting [4] stood at 46 nM. In addition, the inhibition at 0.2 µM under setting [2] amounted to 103%.

Source of the values: US9434711B2 (Janssen Pharmaceutica, NV, priority 2007, dated 2016).
